Experimental data as given in ChEMBL document CHEMBL1201862, “PubChem BioAssay data set” (2004).
The source made the active and inactive calls.

How the values were obtained:
[1] = biological target: Nucleotide-binding oligomerization domain-containing protein 2 (Homo sapiens, UniProt Q9HC29); test: NOD2 signaling inhibitors, cell-based, luminescence, uHTS, HEK293 (AID 1566); format: functional
HEK293 [2] = test: cells; format: functional, cell-based; conditions: Homo sapiens
HEK293 [3] = test: NOD1 signaling inhibitors, primary screen, cell-based, luminescence, uHTS (AID 1578); format: functional; conditions: Homo sapiens
HEK293 [4] = test: cells; format: functional, cell-based; conditions: Homo sapiens; remark: listed apart in the source
HEK293 [5] = test: cells; format: functional, cell-based; conditions: Homo sapiens; remark: listed apart in the source
HEK293 [6] = test: NOD2 signaling inhibitors in MDP-stimulated cells, cell-based, uHTS, luminescence (AID 2001); format: functional; conditions: Homo sapiens
Troponin, cardiac muscle = Troponin, cardiac muscle (Homo sapiens, UniProt P19429+P45379+P63316); test: Fluorescence-based biochemical high throughput dose response assay for activators of the calcium sensitivity of cardiac Regulated Thin Filaments (RTF). [Related pubchem assays (depositor defined):AID493008, AID493018, AID504382, AID504383]; format: protein-complex assay
[7] = biological target: Eukaryotic translation initiation factor 4E (Mus musculus, UniProt P63073); test: eIF4E–eIF4G protein interaction inhibitors, dose response, biochemical, TR-FRET (AID 855); format: functional;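 also: potency for disrupting eIF4E binding to eIF4GI seen as loss of FRET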
Protein RecA = biological target: T1, Protein RecA (Mycobacterium tuberculosis, UniProt P9WHJ3); test: Fluorescence Cell-Free Homogeneous Dose Retest to Identify Inhibitors of RecA-Intein Splicing Activity. [Related pubchem assays (depositor defined):AID2097, AID2223, AID489010, AID492950]; format: functional
T1 sequence (P9WHJ3 whole entry): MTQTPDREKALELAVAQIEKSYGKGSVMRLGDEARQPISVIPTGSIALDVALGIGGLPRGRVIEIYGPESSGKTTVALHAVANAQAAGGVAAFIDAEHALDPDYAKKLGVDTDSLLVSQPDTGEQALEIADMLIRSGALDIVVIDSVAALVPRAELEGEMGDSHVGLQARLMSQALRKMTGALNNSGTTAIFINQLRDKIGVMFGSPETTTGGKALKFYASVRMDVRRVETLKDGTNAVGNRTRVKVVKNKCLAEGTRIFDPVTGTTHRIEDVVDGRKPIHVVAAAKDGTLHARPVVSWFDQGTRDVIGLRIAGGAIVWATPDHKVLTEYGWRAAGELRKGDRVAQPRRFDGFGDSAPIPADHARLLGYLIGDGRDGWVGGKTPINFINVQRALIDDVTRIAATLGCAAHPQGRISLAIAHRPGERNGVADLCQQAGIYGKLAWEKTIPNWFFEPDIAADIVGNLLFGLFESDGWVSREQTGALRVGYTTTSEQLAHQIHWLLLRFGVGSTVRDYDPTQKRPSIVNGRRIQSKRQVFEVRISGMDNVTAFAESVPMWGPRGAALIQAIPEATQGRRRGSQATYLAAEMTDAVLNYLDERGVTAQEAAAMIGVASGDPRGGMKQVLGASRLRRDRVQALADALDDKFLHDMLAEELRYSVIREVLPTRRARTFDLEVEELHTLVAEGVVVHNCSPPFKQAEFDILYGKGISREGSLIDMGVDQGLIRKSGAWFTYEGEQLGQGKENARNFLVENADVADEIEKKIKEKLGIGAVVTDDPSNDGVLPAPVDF

[8] = biological target: T2, Replicative DNA helicase DnaB (Mycobacterium tuberculosis, UniProt P9WMR3); test: DnaB intein splicing inhibitors, dose response, biochemical, cell-free fluorescence (AID 449749); format: functional
T2 sequence (P9WMR3 whole entry): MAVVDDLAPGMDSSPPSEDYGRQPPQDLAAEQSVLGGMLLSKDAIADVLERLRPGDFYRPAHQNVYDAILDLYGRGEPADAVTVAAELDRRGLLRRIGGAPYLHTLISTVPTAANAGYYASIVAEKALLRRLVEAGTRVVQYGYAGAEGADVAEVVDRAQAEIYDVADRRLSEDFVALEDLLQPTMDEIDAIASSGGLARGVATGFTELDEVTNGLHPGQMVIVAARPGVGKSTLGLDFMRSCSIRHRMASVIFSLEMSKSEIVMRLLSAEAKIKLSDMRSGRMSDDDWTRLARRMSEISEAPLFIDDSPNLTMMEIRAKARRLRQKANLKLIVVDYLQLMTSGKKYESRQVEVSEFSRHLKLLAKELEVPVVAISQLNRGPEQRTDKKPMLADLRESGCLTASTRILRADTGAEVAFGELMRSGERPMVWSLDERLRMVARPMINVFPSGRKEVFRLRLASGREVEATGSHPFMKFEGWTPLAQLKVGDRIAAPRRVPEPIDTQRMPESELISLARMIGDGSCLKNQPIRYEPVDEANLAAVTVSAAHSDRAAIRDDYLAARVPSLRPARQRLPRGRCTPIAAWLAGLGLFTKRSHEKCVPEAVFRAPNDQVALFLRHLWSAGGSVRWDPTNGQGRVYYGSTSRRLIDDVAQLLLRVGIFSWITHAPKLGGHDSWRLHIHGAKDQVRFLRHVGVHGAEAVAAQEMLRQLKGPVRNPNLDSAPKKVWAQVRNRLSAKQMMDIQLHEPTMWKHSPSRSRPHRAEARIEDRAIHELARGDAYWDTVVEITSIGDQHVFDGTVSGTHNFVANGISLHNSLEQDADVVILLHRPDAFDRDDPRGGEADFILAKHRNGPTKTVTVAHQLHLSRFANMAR

[9] = Luminescence Cell-Based Dose Retest to Confirm Inhibitors of Cancer Stem Cells. [Related pubchem assays (depositor defined):AID2717, AID2721]; format: functional; conditions: Homo sapiens
[10] = biological target: DNA dC->dU-editing enzyme APOBEC-3G (Homo sapiens, UniProt Q9HC16); test: Dose Response confirmation of small molecule APOBEC3G DNA Deaminase Inhibitors via a fluorescence-based single-stranded DNA deaminase assay. [Related pubchem assays (depositor defined):AID493012, AID493028]; format: functional
Beta-galactosidase = Beta-galactosidase (Escherichia coli, UniProt Q8VNN2); test: beta-galactosidase enzyme inhibitors and activators, dose response, artefact control for CCR6 antagonist project, biochemical, E. coli enzyme, set 3 (AID 504712); format: functional
[11] = biological target: Heat shock protein HSP 90-alpha (Homo sapiens, UniProt P07900); format: functional, organism-based
cells = format: functional
[12] = A cytotoxicity screen of small molecule inhibitors of the PhoP region in Salmonella typhi identified in the primary screen. [Related pubchem assays: 1850, 1864, 1985 ]; format: functional
[13] = M. tuberculosis H37Rv growth inhibitors, H37Rv strain (AID 1626); format: functional
[14] = MC4R antagonists, dose response, counter-screen for LGR2 antagonist project, cell-based, plate reader, cherry pick (AID 743444); format: functional;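 also: transfected HEK 293 cells stimulated with alpha-MSH peptide; potency of inhibitors of the alpha-MSH evoked signal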
[15] = LGR2 antagonists, dose response, cell-based, HEK293, CRE-luciferase reporter, cherry pick, set 2 (AID 743343); format: functional;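 also: transfected cells were stimulated with diluted bursicon conditioned medium after compound addition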
Streptokinase A = biological target: T3, Streptokinase A (Streptococcus pyogenes serotype M1, UniProt P10520); test: S. pyogenes streptokinase expression inhibitors, potency, dose response, plasminogen activation absorbance, OD405 (AID 1914); format: functional, Streptococcus pyogenes M1 GAS;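 also: secreted streptokinase activity via plasminogen activation per viability signal from cell pellet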
T3 sequence (P10520 whole entry): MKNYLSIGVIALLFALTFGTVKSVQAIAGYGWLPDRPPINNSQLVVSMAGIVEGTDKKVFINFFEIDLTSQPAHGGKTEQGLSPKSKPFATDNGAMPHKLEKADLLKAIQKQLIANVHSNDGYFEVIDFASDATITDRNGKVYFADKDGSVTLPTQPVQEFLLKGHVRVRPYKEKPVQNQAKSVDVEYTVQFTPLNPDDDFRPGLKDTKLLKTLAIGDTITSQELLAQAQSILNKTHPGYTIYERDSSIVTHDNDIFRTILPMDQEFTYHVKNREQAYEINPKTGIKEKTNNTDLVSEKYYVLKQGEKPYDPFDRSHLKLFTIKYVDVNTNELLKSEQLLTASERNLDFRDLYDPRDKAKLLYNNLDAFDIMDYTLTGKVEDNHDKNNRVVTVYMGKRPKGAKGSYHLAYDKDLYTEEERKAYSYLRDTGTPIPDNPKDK

[16] = inhibitors of intracellular T. cruzi replication, confirmation, NIH3T3 host cells, beta-gal luminescence (AID 2044); format: functional, cell-based;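 also: intracellular parasites grown in NIH/3T3 mouse fibroblasts as host cells; luminescent beta-galactosidase reporter signal from transgenic T. cruzi replicating inside host cells; inhibitors lower the luminescence signal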
Streptococcus = test: Group A Streptococcus viability loss, dose response, counter-screen for streptokinase expression inhibitor project, luminescence, BacTiterGlo (AID 1915); format: functional, organism-based;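 also: potency for reduction of bacterial viability or growth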
[17] = system: Streptococcus sp. 'group A'; test: growth inhibition of control SK(-) GAS strain, dose response, counter-screen for streptokinase expression inhibitor project, luminescence, kanamycin, BacTiterGlo, confirmation (AID 1900); format: functional, organism-based
[18] = cytotoxicity toward NIH3T3 fibroblasts, dose response, counter-screen, cell-based, ATP luminescence, mouse fibroblasts (AID 2010); format: functional;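 also: cells exposed to compound for about 90 hours before reading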
[19] = A Cell Based Secondary Assay To Explore Cytotoxicity of Compounds that Sensitize Mycobacterium Tuberculosis to Beta-Lactam Antibiotics.; format: functional
[20] = biological target: T4, Carboxy-terminal domain RNA polymerase II polypeptide A small phosphatase 1 (Homo sapiens, UniProt Q9GZU7); test: inhibitors of CTDSP1, concentration-response testing, biochemical assay, absorbance-based, actives from ultra-high-throughput screening (AID 540297); format: functional
T4 sequence (Q9GZU7 whole entry): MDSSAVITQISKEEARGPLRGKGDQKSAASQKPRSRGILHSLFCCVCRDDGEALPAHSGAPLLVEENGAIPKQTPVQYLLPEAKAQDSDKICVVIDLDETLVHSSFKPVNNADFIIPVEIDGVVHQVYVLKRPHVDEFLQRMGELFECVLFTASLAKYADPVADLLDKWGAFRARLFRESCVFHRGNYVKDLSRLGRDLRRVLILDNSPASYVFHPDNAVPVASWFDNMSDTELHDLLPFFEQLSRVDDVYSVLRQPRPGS

[21] = inhibitors of Vif binding to APOBEC3G peptide, primary screen, biochemical, TR-FRET, GST-Vif 1-94, biotin-A3G peptide, dose response retest (AID 1117319); format: functional;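 also: TR-FRET signal of purified GST-Vif binding a biotinylated A3G peptide; inhibitors lower the FRET signal by blocking Vif and A3G binding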

CCCCn1c(SCC(=O)N2CCN(c3ccccc3)CC2)nc2ccsc2c1=O
EC50 [1]: 4.06 µM (active)
IC50 (HEK293 [2]): > 20 µM (inactive)
EC50 (HEK293 [3]): 9.68 µM (active)
IC50 (HEK293 [4]): > 20 µM (inactive)
IC50 (HEK293 [5]): 11.5 µM (active)
IC50 (HEK293 [6]): 8.34 µM (active)

COC(=O)c1ccc(S(=O)(=O)N2CCC(O)CC2)n1C
EC50 (Troponin, cardiac muscle): > 71.4 µM (inactive)

O=C1c2ccccc2C(O)N1Cc1ccccc1Cl (stereo unspecified)
IC50 [7]: > 64 µM (inactive)

O=C(c1[nH]ncc1-c1ccc(Cl)cc1)C1CO1 (stereo unspecified)
EC50 [1]: > 20 µM (inactive)
EC50 (Protein RecA): 20.9 µM (active)
AC50 [8]: 31.7 µM (active)

Cc1ccc(C(C)C)c(OCc2ccc(-c3nnco3)cc2)c1
EC50 [1]: 14.6 µM (active)
IC50 (HEK293 [2]): > 20 µM (inactive)
EC50 (HEK293 [3]): 13.2 µM (active)
IC50 (HEK293 [4]): > 20 µM (inactive)
IC50 (HEK293 [5]): 15.2 µM (active)
IC50 (HEK293 [6]): > 20 µM (inactive)

CCOC(=O)/C=C/C(=O)Nc1cccc([N+](=O)[O-])c1
AC50 [9]: 5.87 µM (active)
IC50 [10]: 11 µM (active)
IC50 (Beta-galactosidase): > 66.6 µM (inactive)
AC50 [11]: 3.97 µM (active)

CC(C)CNC(=S)NC(=O)c1ccccc1Cl
EC50 (Troponin, cardiac muscle): > 71.4 µM (inactive)

O=C(COc1ccc2ccccc2c1)Nc1nccs1
IC50 (cells): 22.3 µM (active)
EC50 [12]: > 50 µM (active)
IC50 [13]: > 100 µM (active)
AC50 [14]: 18 µM (active)
AC50 [15]: 7.4 µM (active)

CN1CCN(C2=CC(=O)OC23CCCCC3)CC1
IC50 [7]: > 64 µM (inactive)

O=C(Nc1cccnc1)c1c(O)c2c(n(Cc3ccccc3)c1=O)CCCC2
IC50 [7]: > 64 µM (inactive)

O=C(CSc1nc(-c2ccc(F)cc2)c[nH]1)NCc1ccco1
EC50 [12]: > 50 µM (active)

CCOC(=O)c1sc(NC(=O)Nc2ccc(Cl)cc2)cc1C
EC50 (Streptokinase A): 26.1 µM (inconclusive)
EC50 [16]: 1.5 µM (active)
EC50 (Streptococcus): 15.6 µM (active)
EC50 [17]: 6.12 µM (active)
EC50 [18]: > 60 µM (not active)
CC50 [19]: 24.9 µM (active)

CCN(CC)C(=S)SCC(=O)c1c(C)[nH]c2ccccc12
EC50 (Troponin, cardiac muscle): > 71.5 µM (inactive)

CCOc1ccccc1NC(=O)N1CCC(NC(=O)c2cccc(C)c2)CC1
IC50 [7]: 58 µM (inactive)
IC50 [20]: 18.8 µM (active)

O=C(c1n[nH]cc1-c1ccc(Cl)cc1)C1CO1 (stereo unspecified)
IC50 (HEK293 [2]): > 20 µM (inactive)
EC50 (HEK293 [3]): 19.3 µM (active)
IC50 (HEK293 [4]): > 20 µM (inactive)
IC50 (HEK293 [5]): 4.08 µM (active)
IC50 (HEK293 [6]): 5.72 µM (inactive)

CCn1c(=N)n(CC(=O)c2ccc(OC)cc2)c2ccccc21
EC50 [12]: > 50 µM (active)
IC50 [21]: > 100 µM (active)
